Literature values, collected in publication PMC7467712, “Physical Mechanisms Governing Substituent Effects on Arene–Arene Interactions in a Protein Milieu” (The Journal of Physical Chemistry. B, 2020).

System: Mus musculus AChE
Set-up: method as in PMID 23984975
Settings: 95% confidence interval within parentheses, at least four replicates

Row | Structure (SMILES) | IC50
1 | CCN(CC)CCNS(=O)(=O)Cc1ccc(F)cc1 [AL036] | 40 µM
2 | CCN(CC)CCNS(=O)(=O)c1cccc(C(F)(F)F)c1 [AL040] | 22 µM
3 | CCN(CC)CCNS(=O)(=O)Cc1ccccc1 [AL029] | 139 µM
4 | CCN(CC)CCNS(=O)(=O)Cc1ccc(C(F)(F)F)cc1 [AL037] | 12 µM
5 | CCN(CC)CCNS(=O)(=O)c1cccc(OC)c1 [AL041] | 7 µM
6 | CCN(CC)CCNS(=O)(=O)Cc1ccc(Cl)cc1 [AL011] | 12 µM
